# Measurements taken from PubChem BioAssay AID330 (DTP/NCI, 2004).
# “And” between values parts separate entries of the source, which are not always exact repeats. Equal values may be shown once. Inconclusive results and toxic doses are left out.
# System: P388 leukemia ip, CD2F1 mice, survival T/C
# Assay: NCI In Vivo Anticancer Drug Screen. Data for tumor model P388 Leukemia (intraperitoneal) in CD2F1 (CDF1) mice
# Settings: endpoint: median survival time, higher = longer survival
# Method in brief: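 Mice carrying the transplanted tumor received test compound or vehicle. Survival was recorded in each group, and the value is the treated-group measurement divided by that of the vehicle-treated control group.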
# [1] = dose: 60.0 mg/kg/injection, schedule: Q01DX005 (ip), vehicle: saline with Tween-80
# [2] = dose: 50.0 mg/kg/injection, schedule: Q01DX009 (ip), vehicle: saline with Tween-80
# [3] = dose: 100.0 mg/kg/injection, schedule: Q01DX009 (ip), vehicle: saline with Tween-80
# [4] = dose: 200.0 mg/kg/injection, schedule: Q01DX009 (ip), vehicle: saline with Tween-80
# [5] = dose: 50.0 mg/kg/injection, schedule: Q01DX005 (ip), vehicle: saline
# [6] = dose: 100.0 mg/kg/injection, schedule: Q01DX005 (ip), vehicle: saline
# [7] = dose: 200.0 mg/kg/injection, schedule: Q01DX005 (ip), vehicle: saline
# [8] = dose: 120.0 mg/kg/injection, schedule: Q01DX005 (ip), vehicle: saline with Tween-80
# [9] = dose: 240.0 mg/kg/injection, schedule: Q01DX005 (ip), vehicle: saline with Tween-80
# [10] = dose: 50.0 mg/kg/injection, schedule: Q01DX005 (ip), vehicle: Klucel (hydroxypropylcellulose) (HPC)
# [11] = dose: 100.0 mg/kg/injection, schedule: Q01DX005 (ip), vehicle: Klucel (hydroxypropylcellulose) (HPC)
# [12] = dose: 200.0 mg/kg/injection, schedule: Q01DX005 (ip), vehicle: Klucel (hydroxypropylcellulose) (HPC)
compound,measurement,setting,value
COC(=O)c1nnn(-c2cc(Cl)ccc2Cl)c1N,T/C,[1],91 % of control
COC(=O)C1CC=CCC1C(=O)O (stereo not drawn),T/C,[2],93 % of control
same,T/C,[3],95 % of control
same,T/C,[4],99 % of control
COC(=O)C[CH2][Sn]([CH2]CC(=O)OC)([c]1ccccc1)[c]1ccccc1,T/C,[5],100 % of control
same,T/C,[6],100 % of control
same,T/C,[7],97 % of control
COc1ccc(C(=O)NO)cc1,T/C,[2],109 % of control
same,T/C,[3],102 % of control
same,T/C,[4],109 % of control
same,T/C,"dose: 400.0 mg/kg/injection, schedule: Q01DX009 (ip), vehicle: saline with Tween-80",115 % of control
O=C(Nc1ccc(Cl)cc1)Oc1ccc(Cl)cc1C(=O)c1ccccc1,T/C,[1],111 % of control
same,T/C,[8],110 % of control
same,T/C,[9],112 % of control
Nc1ccc2c(NCCCCCCCCNc3c4ccccc4nc4cc(N)ccc34)c3ccccc3nc2c1,T/C,"dose: 1.25 mg/kg/injection, schedule: Q01DX009 (ip), vehicle: other",158 % of control
same,T/C,"dose: 2.5 mg/kg/injection, schedule: Q01DX009 (ip), vehicle: other",150 % of control
same,T/C,"dose: 5.0 mg/kg/injection, schedule: Q01DX009 (ip), vehicle: other",151 % of control
CCN(CC)CCCNc1ccc(C)c2sc3ccccc3c(=O)c12,T/C,"dose: 12.5 mg/kg/injection, schedule: Q01DX005 (ip), vehicle: saline",100 % of control
same,T/C,"dose: 25.0 mg/kg/injection, schedule: Q01DX005 (ip), vehicle: saline",109 % of control
same,T/C,[5],99 % of control and 114 % of control
CC(C)N(C(=O)c1ccc([Si](C)(C)C)c(C(=O)N(C(C)C)C(C)C)n1)C(C)C,T/C,[1],98 % of control
same,T/C,[8],94 % of control
same,T/C,[9],98 % of control
NCC(=O)Nc1ccc(O)cc1,T/C,"dose: 100.0 mg/kg/injection, schedule: Q01DX009 (ip), vehicle: saline sonified",104 % of control
same,T/C,"dose: 100.0 mg/kg/injection, schedule: Q04DX003 (ip), vehicle: saline sonified",110 % of control
same,T/C,"dose: 200.0 mg/kg/injection, schedule: Q04DX003 (ip), vehicle: saline sonified",110 % of control
same,T/C,"dose: 264.0 mg/kg/injection, schedule: Q04DX003 (ip), vehicle: saline with Tween-80",109 % of control
same,T/C,"dose: 400.0 mg/kg/injection, schedule: Q04DX003 (ip), vehicle: saline with Tween-80",109 % of control
same,T/C,"dose: 600.0 mg/kg/injection, schedule: Q04DX003 (ip), vehicle: saline with Tween-80",109 % of control
Cc1cc[n+](C2=C(Nc3ccc(Cl)cc3Cl)C(=O)c3ccccc3C2=O)cc1,T/C,[1],99 % of control
same,T/C,[8],106 % of control
same,T/C,[9],108 % of control
N=C(N)SCc1ccc(C(=O)NN2C(=O)c3ccccc3C2=O)cc1,T/C,[2],92 % of control
same,T/C,[3],92 % of control
same,T/C,[4],97 % of control
c1ccc(C2C(c3nc4ccccc4o3)C(c3ccccc3)C2c2nc3ccccc3o2)cc1 (stereo not drawn),T/C,[10],91 % of control
same,T/C,[11],89 % of control
same,T/C,[12],86 % of control
Cc1nc(N)c2nc(SC(C)C)c(N)nc2n1,T/C,[2],91 % of control
same,T/C,[3],91 % of control
same,T/C,[4],91 % of control
Clc1cccc(Cl)c1C(Nc1nc2ccccc2s1)Nc1nc2ccccc2s1,T/C,"dose: 50.0 mg/kg/injection, schedule: Q01DX005 (ip), vehicle: Klucel + Tween-80",110 % of control
same,T/C,"dose: 100.0 mg/kg/injection, schedule: Q01DX005 (ip), vehicle: Klucel + Tween-80",106 % of control
same,T/C,"dose: 200.0 mg/kg/injection, schedule: Q01DX005 (ip), vehicle: Klucel + Tween-80",109 % of control
O=C(O)C(CBr)CBr,T/C,"dose: 25.0 mg/kg/injection, schedule: Q01DX009 (ip), vehicle: water",107 % of control
same,T/C,"dose: 50.0 mg/kg/injection, schedule: Q01DX009 (ip), vehicle: water",106 % of control
same,T/C,"dose: 100.0 mg/kg/injection, schedule: Q01DX009 (ip), vehicle: water",100 % of control
CC(C)CC1NC(=O)C2N=C(OC2C)C2CSSCC(NC(=O)c3csc1n3)C1=NC(C(=O)NC(CC(C)C)c3nc(cs3)C(=O)N2)C(C)O1 (stereo not drawn),T/C,"dose: 0.2 mg/kg/injection, schedule: Q01DX005 (ip), vehicle: DMSO",97 % of control
same,T/C,"dose: 0.4 mg/kg/injection, schedule: Q01DX005 (ip), vehicle: DMSO",96 % of control
same,T/C,"dose: 0.8 mg/kg/injection, schedule: Q01DX005 (ip), vehicle: DMSO",90 % of control
same,T/C,"dose: 1.5 mg/kg/injection, schedule: Q01DX005 (ip), vehicle: DMSO",97 % of control
C=C(CO)C(=O)OC1CC(=C)C2CC(O)C(=C)C2[C@H]2OC(=O)C(=C)C12 (stereo partly drawn),T/C,"dose: 3.75 mg/kg/injection, schedule: Q01DX009 (ip), vehicle: saline",92 % of control
same,T/C,"dose: 7.5 mg/kg/injection, schedule: Q01DX009 (ip), vehicle: saline",99 % of control
same,T/C,"dose: 15.0 mg/kg/injection, schedule: Q01DX009 (ip), vehicle: saline",108 % of control
c1cc2cc3c(cc2o1)OC[C@H]1c2cc4c(cc2O[C@@H]31)OCO4,T/C,"dose: 100.0 mg/kg/injection, schedule: Q01DX001 (ip), vehicle: Klucel (hydroxypropylcellulose) (HPC)",91 % of control
same,T/C,"dose: 200.0 mg/kg/injection, schedule: Q01DX001 (ip), vehicle: Klucel (hydroxypropylcellulose) (HPC)",87 % of control
CC(=O)OC1=C(C)[C@@H]2CC(=O)O[C@@H]3C[C@H]4[C@H](C)C[C@H](O)[C@H](O)[C@]4(C)[C@@H](C1=O)[C@@]32C,T/C,"dose: 0.5 mg/kg/injection, schedule: Q01DX005 (ip), vehicle: saline + alcohol",101 % of control
same,T/C,"dose: 1.0 mg/kg/injection, schedule: Q01DX005 (ip), vehicle: saline + alcohol",103 % of control
same,T/C,"dose: 2.0 mg/kg/injection, schedule: Q01DX005 (ip), vehicle: saline + alcohol",115 % of control
same,T/C,"dose: 4.0 mg/kg/injection, schedule: Q01DX005 (ip), vehicle: saline + alcohol",111 % of control
same,T/C,"dose: 8.0 mg/kg/injection, schedule: Q01DX005 (ip), vehicle: saline + alcohol",115 % of control
same,T/C,"dose: 16.0 mg/kg/injection, schedule: Q01DX005 (ip), vehicle: saline + alcohol",101 % of control
same,T/C,"dose: 32.0 mg/kg/injection, schedule: Q01DX005 (ip), vehicle: saline + alcohol",94 % of control
C1=CC2C(c3cccc4ccccc34)O[C@H]2O1 (stereo partly drawn),T/C,"dose: 7.5 mg/kg/injection, schedule: Q01DX005 (ip), vehicle: Klucel (hydroxypropylcellulose) (HPC)",97 % of control
same,T/C,"dose: 15.0 mg/kg/injection, schedule: Q01DX005 (ip), vehicle: Klucel (hydroxypropylcellulose) (HPC)",97 % of control
same,T/C,"dose: 30.0 mg/kg/injection, schedule: Q01DX005 (ip), vehicle: Klucel (hydroxypropylcellulose) (HPC)",97 % of control
O=C1c2ccccc2C(=O)c2c(NC(=O)c3ccc4c5c(ncnc35)-c3ccccc3C4=O)cccc21,T/C,"dose: 50.0 mg/kg/injection, schedule: Q01DX009 (ip), vehicle: Klucel (hydroxypropylcellulose) (HPC)",95 % of control
same,T/C,"dose: 100.0 mg/kg/injection, schedule: Q01DX009 (ip), vehicle: Klucel (hydroxypropylcellulose) (HPC)",100 % of control
same,T/C,"dose: 200.0 mg/kg/injection, schedule: Q01DX009 (ip), vehicle: Klucel (hydroxypropylcellulose) (HPC)",94 % of control
Nc1ccc(F)cc1S,T/C,[3],118 % of control
O=C1CN(CCN2CCOCC2)CC(=O)N2CCCCN12,T/C,[5],99 % of control
same,T/C,[6],102 % of control
same,T/C,[7],107 % of control
COC(=O)C1(C(=O)Nc2ccccc2)N=N1,T/C,"dose: 60.0 mg/kg/injection, schedule: Q01DX005 (ip), vehicle: Klucel (hydroxypropylcellulose) (HPC)",108 % of control
same,T/C,"dose: 120.0 mg/kg/injection, schedule: Q01DX005 (ip), vehicle: Klucel (hydroxypropylcellulose) (HPC)",100 % of control
same,T/C,"dose: 240.0 mg/kg/injection, schedule: Q01DX005 (ip), vehicle: Klucel (hydroxypropylcellulose) (HPC)",103 % of control
O=C(Nc1ccccc1F)N(CCO)C1CCCCC1,T/C,[1],93 % of control
same,T/C,[8],93 % of control
same,T/C,[9],98 % of control
CC(NNC(=S)N1CCCC1)c1ccccn1 (stereo not drawn),T/C,"dose: 50.0 mg/kg/injection, schedule: Q01DX005 (ip), vehicle: saline with Tween-80",107 % of control
same,T/C,"dose: 100.0 mg/kg/injection, schedule: Q01DX005 (ip), vehicle: saline with Tween-80",105 % of control
O=C1C2CCCC1C(c1ccccc1)NC2c1ccccc1 (stereo not drawn),T/C,"dose: 25.0 mg/kg/injection, schedule: Q01DX005 (ip), vehicle: Klucel (hydroxypropylcellulose) (HPC)",104 % of control
same,T/C,[10],102 % of control
same,T/C,[11],96 % of control
same,T/C,[12],98 % of control
CCC[CH2][Sn]([CH3])([CH3])[CH2]CC[N+](C)(C)C,T/C,"dose: 12.5 mg/kg/injection, schedule: Q01DX009 (ip), vehicle: saline",95 % of control
same,T/C,"dose: 25.0 mg/kg/injection, schedule: Q01DX009 (ip), vehicle: saline",98 % of control
same,T/C,"dose: 50.0 mg/kg/injection, schedule: Q01DX009 (ip), vehicle: saline",96 % of control
